Test results taken from patent US10287294B2, “Compounds for use in treating or preventing cancerous diseases” (BIOMEDICAL RESEARCH FOUNDATION OF THE ACADEMY OF ATHENS, priority 2015, dated 2019).
Blank lines part the entries; values can stand above or below the compound they belong to.

Columns and labels:
[1] = tested on: human prostate cancer xenografts; details: two weeks in vivo treatment with 20 or 30 mg/kg; cited from earlier work
[2] = tested on: TGR-1 cells; assay: MTT cell viability assay, TGR-1 cells (Myc+/+); type: cell-based; details: Rattus norvegicus, TGR1, 72 h; for IC50: Myc+/+ cells, MTT day 3, logit-log linear regression
Text: (§1) To evaluate the in vitro activity of the compound having the formula (II) (Amy22), the sibling cell lines TGR-1 and H015.19 were used. The TGR-1 cells are a subclone of the Rat-1 fibroblastic cell line with intact Myc (Myc^+/+), whereas the H015.19 cells are Myc^−/− derivatives of the TGR-1 cells (Mateyak et al., 1997). The two sibling cell lines thus differ only in the presence or absence of Myc, thereby allowing to determine not only the activity of the tested compound in Myc-positive cancer cells, but also in cells not expressing Myc offering an indication of the specificity of the tested compound.
(§2) The TGR-1 and H015.19 cells were grown in DMEM supplemented with 10% FBS. Equal numbers of cells were seeded in multiple wells of 24-well plates at low density (<20% confluence at day 0), and either DMSO or DMSO-dissolved Amy22 (various concentrations) was added to the medium (final concentration of DMSO: 0.1%). Cell viability (sextuplicates) was measured on day 3 by using a standard MTT (Thiazolyl Blue Tetrazolium Bromide) colorimetric assay (Mosmann, 1983). Half-maximal inhibitory concentrations (IC50) were determined using a log it-log plot and linear regression of the data (SigmaPlot software; Systat Software, Inc., San Jose, Calif., USA), as shown in FIG. 1 and Table 1. The measured data were plotted on the log it-log plot for linear regression of cell viability data (average values from 5 independent experiments in each case), in order to calculate the Amy22 IC50 for the sibling cell lines that differ only in the presence or absence of Myc (TGR-1 and H015.19 cells, respectively). The IC50 for H015.19 cells was calculated by extrapolation.

[3] = Blood concentrations of Amy22 after oral gavage to mice (LC-MS/MS, non-compartmental analysis); type: in vivo, mouse
Protocol: Animals at the age of 10 weeks were fasted overnight and weighed before dosing (average weight=21.6 g, n=6 male C57BL/6N). Dosing solutions of 20 mg/ml Amy22 in 0.5% carboxymethyl cellulose (CMC) were used for administration per os (0.15 ml per animal, dose 140 mg/kg). A serial tail bleeding protocol was used for the collection of blood samples. Blood samples (10 μl) were collected at selected time points (0.5, 1, 2, 4, 8, 24 hours) in tubes containing 40 μl sodium citrate (0.1 M, pH 4.5) and stored at −80° C. until sample extraction. Samples were prepared for quantification by protein precipitation and evaporation. Amy22 was quantified by LC-MS/MS analysis.
Pharmacokinetic Parameters Using Non-Compartmental Analysis

[4] = tested on: pancreatic ductal adenocarcinoma (PDA); assay: Micro PET/CT imaging of Pdx1-Cre/KRAS*A mouse treated with Amy22; type: in vivo
Protocol: PET/CT images were acquired of a Pdx1-Cre/KRAS*A mouse at the beginning and end of treatment (one month) of pancreatic ductal adenocarcinoma (PDA) with the Amy22 compound (cf. FIG. 4; a representative out of three independent experiments is shown). Dosing solutions of 20 mg/ml Amy22 in 0.5% carboxymethyl cellulose (CMC) were used for daily administration per os (0.15 ml per animal, dose 150 mg/kg) for 30 days. The diminished uptake of ^18F-FDG by remnants of PDA is evident and measured by the standardized uptake values (SUV values) that were 2.87 at the beginning and 1.5 at the end of the treatment. The white arrows indicate the anatomical sites of pancreata. High-level concentration of ^18F-FDG in the urinary bladder (excretion of the tracer) and also in the heart (yellow arrows) is noted.

[5] = tested on: human pancreatic ductal adenocarcinoma cell line MiaPaCa2 xenografts; assay: Amy22 treatment of MiaPaCa2 xenografts in NOD/SCID mice; type: in vivo; details: Amy22 150 mg/kg for two weeks
Protocol: For transplantation, eight-week old NOD/SCID mice were anesthetized using a steady flow of a mixture of isofluorane gas (4%) and oxygen and inoculated subcutaneously into their lateral flanks with 10^6 cancer cells and monitored daily until the tumors became palpable (tumor volume ˜100 mm^3). The mice were then divided randomly into two groups for Amy22 (150 mg/kg) or vehicle administration for a period of two weeks. Average weights±S.E.M (n=4 in each case) are indicated (p<0.001 and <0.05 for MiaPaCa2 and MMTV-Myc, respectively). […] FIG. 3 illustrates the gross appearance of surgically recovered Amy22-treated or untreated (control) xenografts.

[6] = tested on: H015.19 cells; assay: MTT cell viability assay, H015.19 cells (Myc-/-); type: cell-based, rat; details: Rattus norvegicus, 72 h, Myc-/- cells
Text: as §1, §2

[7] = MTT cell viability assay, H015.19 cells (Myc-/-); type: cell-based, rat; details: rat, H015.19 cells (Myc-/- derivatives of TGR-1), day 3, MTT, average ± S.E.M
Text: as §1, §2

[8] = tested on: pancreatic ductal adenocarcinoma (PDA); assay: Post-mortem gamma counting of 18F-FDG uptake in Pdx1-Cre/KRAS*A mice after monotherapy or combination with Amy22; type: in vivo, mouse; details: one month; Gemcitabine 300 mg/kg IP weekly; in combination Amy22 150 mg/kg per os daily
Protocol: The representative PET/CT images shown were acquired for Pdx1-Cre/KRAS*A mice at the beginning and end of treatment (one month) of pancreatic ductal adenocarcinoma (PDA) using either Gemcitabine alone or a combination of Gemcitabine and Amy22. The scheme used for the treatment was as follows: weekly IP administration of Gemcitabine (300 mg/kg) in both cases and daily administration of AMY22 per os (150 mg/kg) in the combination treatment (cf. FIG. 5).
In some scans, a high-level concentration of ^18F-FDG in the urinary bladder (excretion of the tracer) could be observed. High uptake of radioactivity (unrelated to the presence of tumor) was also noted in the heart.

[9] = mouse, whole blood, po, blood, male C57BL/6N mice, 140 mg/kg per os in 0.5% CMC
[10] = MTT day 3, logit-log linear regression

SMILES: CCc1ccc(C=C2SC(=S)NC2=O)cc1 [10058-F4, [Z,E]-5-[4-ethylbenzylidine]-2-thioxothiazolidin-4-one]
inhibition of tumor growth [1]: no significant inhibition of tumor growth

SMILES: O=C(Nc1c(C(=O)O)cnn1-c1ccccc1)c1cc2nc(-c3ccco3)cc(C(F)(F)Cl)n2n1 [Amy22]
viability at 0.1 µM ([2]; Amy22 0.1 μM, day 3, MTT, average ± S.E.M): 84.4 ± 5%
viability at 0.5 µM ([2]; Amy22 0.5 μM, day 3, MTT, average ± S.E.M): 73.7 ± 4%
viability at 1 µM ([2]; Amy22 1 μM, day 3, MTT, average ± S.E.M): 67.3 ± 4.1%
viability at 5 µM ([2]; Amy22 5 μM, day 3, MTT, average ± S.E.M): 54.5 ± 4.6%
viability at 10 µM ([2]; Amy22 10 μM, day 3, MTT, average ± S.E.M): 46 ± 2.5%
viability at 25 µM ([2]; Amy22 25 μM, day 3, MTT, average ± S.E.M): 39.9 ± 2.2%
viability at 50 µM ([2]; Amy22 50 μM, day 3, MTT, average ± S.E.M): 26.8 ± 4.8%
viability at 100 µM ([2]; Amy22 100 μM, day 3, MTT, average ± S.E.M): 19 ± 3.7%
IC50 [2]: 5.8 µM
Elimination rate constant (ke) ([3]; blood, male C57BL/6N mice, 140 mg/kg per os in 0.5% CMC): 0.2 ± 0.1 h⁻¹
AUC(0-inf) [3, 9]: 35.4 ± 9.5 µM·h
Cmax [3, 9]: 6.2 ± 1.1 µM
Tmax [3, 9]: 1.5 ± 0.5 h
AUC(0-t) ([3]; mouse, whole blood, po, blood, male C57BL/6N mice, 140 mg/kg per os in 0.5% CMC, read-out: AUC0-24): 33.6 ± 8.3 µM·h
blood concentrations ([3]; up to at least 8 hr post dose, oral 140 mg/kg): > 1 micro molar
survival and condition of treated mice ([4]; after 150 mg/kg per os daily for 30 days): still alive 3 months post-treatment with no evident signs of cachexia
standardized uptake value (SUV) of 18F-FDG ([4]; at the beginning of treatment): 2.87
standardized uptake value (SUV) of 18F-FDG ([4]; at the end of treatment, 150 mg/kg per os daily for 30 days): 1.5
apoptosis in xenografts [5]: induced apoptosis
proliferation index (Ki67 immunohistochemistry) ([5]; MiaPaCa2 xenografts, controls 69.9±5.1%): 15.0±3.3%
IC50 ([6]; MTT day 3, calculated by extrapolation): 1800 µM
viability at 3 days, 0.1 μM ([7]; Amy22 0.1 μM): 86.3 ± 5.9%
viability at 3 days, 0.5 μM ([7]; Amy22 0.5 μM): 84.7 ± 5.7%
viability at 3 days, 1 μM ([7]; Amy22 1 μM): 80 ± 4.1%
viability at 3 days, 5 μM ([7]; Amy22 5 μM): 75.3 ± 8.8%
viability at 3 days, 10 μM ([7]; Amy22 10 μM): 74.6 ± 4.9%
viability at 3 days, 25 μM ([7]; Amy22 25 μM): 70.8 ± 5.1%
viability at 3 days, 50 μM ([7]; Amy22 50 μM): 67.8 ± 4%
viability at 3 days, 100 μM ([7]; Amy22 100 μM): 61.1 ± 3.8%

SMILES: Nc1ccn([C@@H]2O[C@H](CO)[C@@H](O)C2(F)F)c(=O)n1 [Gemcitabine]
remaining tumor as % of untreated PDA tumors (18F-FDG uptake, gamma counting post-mortem) [8]: 31%

Second part, led by results:

IC50 [6, 10]: 13.4 µM
SMILES: O=C(Nc1ccc(F)cc1)c1cc2nc(-c3ccco3)cc(C(F)(F)Cl)n2n1 [formula (III), reference compound]
IC50 [2]: 6.5 µM

IC50 [6, 10]: 58.8 µM
SMILES: O=C(c1cc2nc(-c3ccco3)cc(C(F)(F)Cl)n2n1)N1CCNCC1 [formula (IV), reference compound]
IC50 [2]: 12.3 µM
